Reference: US20190142953A1, “Dendrimer-Drug Conjugates, Hydrogel Compositions, and Methods” (Massachusetts Institute of Technology, priority 2016, published 2019)

Key:
[1] = system: healthy mammary epithelial cells; assay: Cytocidal effect in healthy cells; assay type: cell-based; details: equivalent free doxorubicin concentration
From the text: The next question studied was whether conjugated doxorubicin still maintained its cytotoxic effect.

[2] = Release from dendrimer:dextran hydrogel scaffold; assay type: physicochemical
From the text: The hydrogel matrix included a 10% solid content PAMAM dendrimer, generation 5, with 75% of the amines of its surface groups oxidized to alcohols (i.e., 32 amines and 96 alcohols), and a 10% solid content dextran aldehyde (10 kDa weight average molecule weight, with 50% oxidation to aldehydes).
Free doxorubicin was released in approximately 6 days, owing to the interactions between amine groups in the drug and aldehyde groups in the dextran. When amines in the doxorubicin structure were blocked with aconitic anhydride, the drug was released rapidly through the large pores of the hydrogel in 48 hours.

[3] = In vivo organ distribution after systemic and local delivery; parameters: species or system mice
Procedure: An analysis was conducted of the organ distribution of both the dendritic pro-drugs and free doxorubicin after local and systemic administration. Fluorescently labelled dendritic pro-drugs of Example 5 or free drug were injected systemically and their distributions were assessed after 24 hours.

[4] = system: triple negative breast cancer (TNBC); assay: In vivo therapeutic efficacy, murine model of triple negative breast cancer
EGFR [5] = biological target: T1, EGFR (Homo sapiens, UniProt P00533); assay: EGFR pathway activation (EGFR phosphorylation) by Western Blot; assay type: cell-based
T1 construct: endogenous in cells; host or cells: MDA-MB-468
From the text: EGFR signaling pathway is believed to induce growth, differentiation, migration, adhesion, and cell survival through various interacting signaling pathways. It is believed to be critical for the design of chemotherapeutic pro-drugs utilizing this receptor to ensure this pathway was not triggered, leading to further cancer cell proliferation and survival, which could counteract the effects of the chemotherapeutic drug.
Actin was used as an internal control in all gels.

EGFR [6] = biological target: T1, EGFR; assay: EGF/EGFmp competition for the receptor, EGFR activation by Western Blot; assay type: cell-based; details: mix of EGF and peptide, EGFR-overexpressing cancer cells
[7] = local in hydrogel scaffold, 72-hour post-implantation

EGFR phosphorylation / pathway activation (EGFR [5])	blocking of EGF-mediated EGFR activation (EGFR [6])	Molecule	cell death [1]	time to release from hydrogel [2]	circulating level in blood ([3]; after local delivery)	level in blood (fluorescence) ([3]; after systemic administration)	accumulation in other organs [3, 7]	tumor accumulation, local therapy versus systemic administration [3, 7]	accumulation in other organs (spleen, heart, lungs, liver, kidneys) ([3]; systemic injection, 24 hours)	tumor shrinkage compared to untreated control ([4]; local in hydrogel, multiple doses (days 0, 11, 22), bioluminescence)	tumor reduction compared to untreated control ([4]; systemic administration)
–	–	COc1cccc2c1C(=O)c1c(O)c3c(c(O)c1C2=O)C[C@@](O)(C(=O)CO)C[C@@H]3O[C@H]1C[C@H](N)[C@H](O)[C@H](C)O1 [free doxorubicin, doxorubicin]	over 90%	approximately 6 days	No circulating drug or dendritic pro-drug were observed in the blood	not statistically different than that of the untreated control	no accumulation was observed in other organs	5 times	no significant accumulation was observed in any other organ	69%	did not exhibit significant tumor volume reduction
none were observed	did not behave as an EGF antagonist	NH2—CGGGGAEYLR-COOH (H-CGGGGAEYLR-OH) [EGFmp, EGF mimicking peptide modified with four glycine residues terminated with a cysteine]	–	–	–	–	–	–	–	–	–
